Assay results from patent US12617757B2, “Compounds and modules for inhibition of pre-miR-21 and their use in treatment of certain cancers” (University of Florida Research Foundation, Incorporated, priority 2019, dated 2026).

How the values were obtained:
[1] = test system: PTEN; experiment: PTEN 3′ UTR luciferase reporter assay in MDA-MB-231 cells; assay type: cell-based, human
Experimental: PTEN Luciferase Assay. The MDA-MB-231 cells were grown in 48-well plates to ˜60% confluency and then transiently co-transfected with a Firefly luciferase plasmid encoding the 3′ untranslated region (UTR) of PTEN^25 and a control Renilla luciferase plasmid using Lipofectamine 2000 per the manufacturer's protocol. At 5 h post-transfection, compounds diluted in growth medium were added to cells and then incubated for 48 h. Luciferase assays were completed using a previously described protocol^23,26. Luminescence signal was measured on a Biotek Flx800 plate reader.

[2] = test system: pre-miR-21 BP RNA; experiment: In vitro Dicer processing of pre-miR-21 BP; assay type: biochemical
From the text: In vitro Dicer processing. […] Cleavage products were resolved on a denaturing 15% polyacrylamide gel, which was imaged using a Molecular Dynamics Typhoon phosphorimager and quantified with Bio-Rad's QuantityOne software, normalizing to full length RNA.

[3] = test system: miR-21-5p in HEK293T cells; experiment: RT-qPCR of mature miR-21-5p in HEK293T cells (dimer linker screening); assay type: cell-based; conditions: n=3, n=4 and 1
[4] = test system: pre-miR-21; experiment: Cellular Chem-CLIP / C-Chem-CLIP in MDA-MB-231 cells; assay type: cell-based, human
Experimental: Cellular Chem-CLIP/C-Chem-CLIP. The MDA-MB-231 cells were grown to ˜70% confluency as monolayers in 60 mm dishes. The cells were treated with Chem-CLIP compounds (8 or 9) and/or non-cross-linking competitors (1 or 2) for 48 h. Total RNA was extracted using a Quick-RNA MiniPrep Kit (Zymo Research) per the manufacturer's protocol. Approximately 20-30 μg of total RNA was then incubated with 100 μL of streptavidin-agarose beads (Sigma-Aldrich) and shaken for 1 h at room temperature. The solution was removed beads washed six times with 1×PBS. The RNA bound to beads was released, purified, and used for RT-qPCR as previously described^23. Relative fold enrichment of the measured RNA before and after pulldown was measured using equation 3 (Eq. 3): Relative Fold Enrichment=2^−(ΔC^t^before pulldown−ΔC^t^after pulldown) (Eq. 3)
where “ΔCt before pulldown” is the difference between the Ct values for the RNA of interest and a housekeeping gene in total RNA from cells and “ΔCt after pulldown” is the difference between the Ct values for the RNA of interest and the same housekeeping gene in RNA after pulldown.

[5] = test system: pre-miR-21 BP; experiment: MST binding to pre-miR-21 BP (base paired control); conditions: addition of 100 μM of compound
Experimental: Microscale Thermophoresis (MST) Binding Measurements. MST fluorescent measurements were performed on a Monolith NT.115 system (NanoTemper Technologies) using the fluorescence of a miR-21 hairpin (A+U Bulge): (5′ Cy5-[…]-3′) (SEQ ID NO: 1) or a miR-21 base paired control (5′ Cy5-[…]-3′) (SEQ ID NO: 2) which were purchased from IDT with RNase-free HPLC purification and used without further purification. The RNA (5 nM) was diluted in 1×MST Buffer (8 mM Na2HPO4, 190 mM NaCl, 1 mM EDTA, and 0.05% (v/v) Tween-20) and folded by heating at 60° C. for 5 min, and slowly cooling to room temperature. Compounds 1 and 2 were diluted in 1×MST Buffer, followed by 1:3 dilutions in 1×MST Buffer containing 5 nM RNA. […] Fluorescence measurements (Ex: 605-645 nm, Em: 680-685 nm) were performed at 10% LED and 80% MST power, with a Laser-On time of 30 s and Laser-Off time of 5 s. The data were analyzed by thermophoresis analysis and fitted by the quadratic binding equation in MST analysis software (NanoTemper Technologies). Dissociation constants were then determined by curve fitting using a single-site model. Normalized MST signal was calculated by normalizing the fluorescent signals using the MST data of 1 binding to pre-miR-21 WT with the lowest signal as 0 and the highest fluorescent signal as 1.

[6] = test system: IFN-γ; experiment: IFN-γ ELISA of MDA-MB-231 supernatant; assay type: cell-based, human
Experimental: Measurement of IFN-γ: The MDA-MB-231 cells were plated into a 24-well plate and allowed to grow to 70% confluency. Cells were transfected with 2′-5′ A4 using Lipofectamine RNAiMAX (Life Technologies). Alternatively, MDA-MB-231 cells were mock transfected and treated with vehicle (DMSO) or 5 (5, 50, 500, 5000 nM). Cell culture supernatant was removed at 24 h. The Human IFN-γ ELISA Kit (Bon Opus Biosciences: BE010020) was used to measure interferon gamma levels from the supernatants, per the manufacturer's instructions.

[7] = target: T1, RNase L (Homo sapiens, UniProt Q05823); experiment: Co-immunoprecipitation of RNase L from treated cells; assay type: cell-based; design: endogenous in cells; host or cells: MDA-MB-231
T1 sequence (Q05823 1-741): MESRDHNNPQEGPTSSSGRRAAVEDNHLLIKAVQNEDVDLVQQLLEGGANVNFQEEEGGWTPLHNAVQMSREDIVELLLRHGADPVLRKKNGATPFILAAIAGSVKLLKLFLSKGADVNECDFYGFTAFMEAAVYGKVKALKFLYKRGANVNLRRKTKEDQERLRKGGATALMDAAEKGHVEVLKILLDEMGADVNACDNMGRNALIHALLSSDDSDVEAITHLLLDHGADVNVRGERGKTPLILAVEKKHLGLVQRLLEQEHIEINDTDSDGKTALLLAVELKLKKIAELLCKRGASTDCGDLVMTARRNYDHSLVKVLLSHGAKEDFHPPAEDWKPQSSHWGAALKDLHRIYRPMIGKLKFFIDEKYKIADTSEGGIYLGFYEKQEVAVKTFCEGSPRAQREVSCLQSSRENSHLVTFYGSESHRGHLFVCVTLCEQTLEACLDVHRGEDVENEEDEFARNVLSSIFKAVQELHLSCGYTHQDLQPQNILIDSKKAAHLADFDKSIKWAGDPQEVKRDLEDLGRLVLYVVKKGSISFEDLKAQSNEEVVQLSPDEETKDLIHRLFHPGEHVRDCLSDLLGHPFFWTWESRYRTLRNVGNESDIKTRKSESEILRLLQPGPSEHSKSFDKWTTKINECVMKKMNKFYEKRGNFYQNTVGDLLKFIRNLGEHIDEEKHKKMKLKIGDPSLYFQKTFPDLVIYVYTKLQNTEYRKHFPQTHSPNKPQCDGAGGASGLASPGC

SMILES	increase of PTEN luciferase signal relative to mock or scramble controls [1] [fold]	increase of PTEN levels ([1]; 10 μM) [%]	protection from Dicer processing [2]	inhibition of miR-21 levels, dose response of linker lengths [3]	potency in occupying pre-miR-21 in cells versus Formula 1 (C-Chem-CLIP) ([4]; MDA-MB-231) [fold]	competition of Chem-CLIP enrichment (C-Chem-CLIP) ([4]; MDA-MB-231, versus probe 8)	saturation of the binding isotherm [5]	IFN-7 ELISA [6]	pre-miR-21 in the enriched fraction of RNase L co-immunoprecipitation [7]	enrichment of pre-miR-210 in RNase L co-immunoprecipitation ([7]; 200 nM)	increase in pre-miR-21 in RNase L co-immunoprecipitation ([7]; 200 nM) [fold]
CCCN(CC(=O)N(CCC)CC(=O)N(CCC)CC(=O)N(CC(N)=O)Cc1cn(CCCNC(=O)CCCOc2ccc(-c3nc4cc(-c5ccc(N6CCN(C)CC6)cc5)ccc4[nH]3)cc2)nn1)C(=O)CNCc1cn(CCCNC(=O)CCCOc2ccc(-c3nc4cc(-c5ccc(N6CCN(C)CC6)cc5)ccc4[nH]3)cc2)nn1 [Compound 2]	~1.5	~50	Protection with compound is observed at U26 and U27	most significantly inhibited miR-21 levels	20	enrichment is depleted	No saturation of the binding isotherm was observed	–	–	–	–
CCCN(CC(=O)N(CCC)CC(=O)N(CCC)CC(=O)N(CC(=O)NCCOCCOCCOCCOc1ccc(C=C2SC(Nc3ccccc3)=C(C(=O)OCC)C2=O)cc1O)Cc1cn(CCCNC(=O)CCCOc2ccc(-c3nc4cc(-c5ccc(N6CCN(C)CC6)cc5)ccc4[nH]3)cc2)nn1)C(=O)CN(Cc1cn(CCCNC(=O)CCCOc2ccc(-c3nc4cc(-c5ccc(N6CCN(C)CC6)cc5)ccc4[nH]3)cc2)nn1)C(C)=O [Compound 5]	–	–	–	–	–	–	–	no activation of the innate antiviral immune response	increased levels of pre-miR-21 in the enriched fraction	no enrichment of pre-miR-210	~3
